TGI and GI50 data for 13 molecules are collected here from PubChem BioAssay (NCI).

Molecules are shown by their SMILES.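 Test compounds were applied to cells in 96-well plates for 48 hours at 5 doses. Here, GI50 denotes the concentration required for 50% inhibition of growth. TGI: total growth inhibition.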

Some test systems named below: HT29 colon; CAKI-1 renal; COLO 205 colon; UO-31 renal; EKVX NSCLC; HOP-92 NSCLC; HS 578T breast; SNB-75 CNS; IGROV1 ovarian; BT-549 breast.
Common to all, as to test: NCI-60 cell line screen, 48 h

As to `Cc1ccc(S(=O)(=O)NC(CN)C(=O)O)cc1` (configuration not stated), the TGI in the test on HT29 colon, with CAKI-1 renal, in the test on COLO 205 colon, with UO-31 renal, with EKVX NSCLC and in the test on HOP-92 NSCLC was above 100 µM in each case. Besides, the TGI in the test with HS 578T breast, with SNB-75 CNS, in the test with IGROV1 ovarian and in the test with BT-549 breast was above 100 µM in each case.

`N#CC1c2ccccc2C=CN1C(=O)N(c1ccccc1)c1ccccc1` (configuration not stated): the GI50 was 3.56 µM with HT29 colon; 1.64 µM in the test with CAKI-1 renal; 1.83 µM in the test on COLO 205 colon; 1.49 µM in the test with UO-31 renal; 5.7 µM in the test with EKVX NSCLC; 2 µM with HOP-92 NSCLC. For the same molecule, the GI50 in the test with HS 578T breast is 3.14 µM; in the test on SNB-75 CNS it was 6.3 µM; in the test on IGROV1 ovarian it was 1.76 µM; with BT-549 breast, 8.68 µM. Also, the TGI was 11.5 µM in the test on HT29 colon; 3.63 µM in the test with CAKI-1 renal; 3.43 µM in the test with COLO 205 colon; 3.12 µM in the test on UO-31 renal; 18.9 µM with EKVX NSCLC; 4.36 µM with HOP-92 NSCLC. Further, the TGI in the test on HS 578T breast worked out at 13.7 µM; in the test on SNB-75 CNS, 21 µM; in the test with IGROV1 ovarian it was 3.66 µM; with BT-549 breast, 21.2 µM.

Turning to `O=c1[nH]cnc2c1nnn2CCCCCCCCCCCCn1nnc2c(=O)[nH]cnc21`, the TGI in the test with HT29 colon is above 100 µM; in the test with CAKI-1 renal it was above 100 µM; with COLO 205 colon it was above 100 µM; with UO-31 renal, above 100 µM; in the test with EKVX NSCLC, above 82.5 µM; in the test with HOP-92 NSCLC, 53 µM. Besides, the TGI in the test with HS 578T breast is 60.7 µM; with SNB-75 CNS, above 57.2 µM; with IGROV1 ovarian it was above 77.8 µM; in the test with BT-549 breast, above 100 µM.

As to `C=CC(=O)N1CC2(CC(n3nc(-c4ccc5c(cnn5C)c4)c(-c4c(Cl)c(C)cc5[nH]ncc45)c3C)C2)C1`, the GI50 in the test on HT29 colon was 3.62 µM; with CAKI-1 renal it was 3.95 µM; in the test on COLO 205 colon, 2.1 µM; in the test with UO-31 renal, 1.97 µM; in the test on EKVX NSCLC it was 3.23 µM; with HOP-92 NSCLC, 3.36 µM. The GI50 is 5.56 µM in the test on HS 578T breast, 2.57 µM with SNB-75 CNS, 2.76 µM in the test with IGROV1 ovarian and 2.57 µM in the test with BT-549 breast. In addition, the TGI was determined as 29.5 µM in the test on HT29 colon; 14.3 µM in the test on CAKI-1 renal; 4.17 µM in the test on COLO 205 colon; 4.68 µM with UO-31 renal; 11.1 µM in the test with EKVX NSCLC; 14.3 µM in the test on HOP-92 NSCLC. Further, the TGI is 62.9 µM in the test with HS 578T breast, 11.9 µM in the test with SNB-75 CNS, 8.18 µM with IGROV1 ovarian and 7.9 µM in the test on BT-549 breast.

As for `O=C(Nc1nc2ccccc2s1)Nc1ccc([N+](=O)[O-])cc1Cl`, the GI50 with HT29 colon is 7.3 µM; in the test with CAKI-1 renal it was 6.25 µM; in the test on COLO 205 colon it was 10.3 µM; in the test with UO-31 renal it was 2.24 µM; in the test on EKVX NSCLC, 11 µM; in the test on HOP-92 NSCLC, 3.81 µM. The GI50 in the test with HS 578T breast was 3.98 µM; with SNB-75 CNS, 1.87 µM; in the test on IGROV1 ovarian, 4.71 µM; with BT-549 breast, 2.04 µM. Also, the TGI is 21.9 µM in the test on HT29 colon; 16.2 µM with CAKI-1 renal; 32.9 µM in the test with COLO 205 colon; 6.44 µM in the test on UO-31 renal; 45.1 µM in the test on EKVX NSCLC; 11.7 µM in the test with HOP-92 NSCLC. The TGI with HS 578T breast is above 20.8 µM; in the test on SNB-75 CNS, 5.36 µM; in the test with IGROV1 ovarian, 10.4 µM; in the test on BT-549 breast, 7.68 µM.

Regarding `CC(=O)[O][Hg][c]1c(C)c(C)cc(C)c1C`, the GI50 was 1.6 µM in the test with HT29 colon; 2.03 µM with CAKI-1 renal; 2.49 µM with COLO 205 colon; 1.68 µM with UO-31 renal; 1.25 µM in the test with EKVX NSCLC; 0.128 µM in the test on HOP-92 NSCLC. The GI50 in the test with HS 578T breast is 0.708 µM; with SNB-75 CNS, 1.48 µM; in the test with IGROV1 ovarian, 0.703 µM; in the test with BT-549 breast, 1.86 µM. Moreover, the TGI with HT29 colon came to 6.31 µM; with CAKI-1 renal, 5.4 µM; with COLO 205 colon, 6.47 µM; in the test on UO-31 renal, 3.25 µM; in the test on EKVX NSCLC it was 3.11 µM; in the test on HOP-92 NSCLC it was 0.705 µM. The TGI with HS 578T breast turned out to be 4.02 µM; in the test on SNB-75 CNS it was 2.99 µM; in the test with IGROV1 ovarian, 2.37 µM; in the test with BT-549 breast it was 3.79 µM.

Take `CN(CC(=O)N(Cc1ccc(C2CCCCC2)cc1)c1ccc(C(=O)O)cc1)S(=O)(=O)c1c(F)c(F)c(F)c(F)c1F`: the GI50 with HT29 colon is 2.01 µM; with CAKI-1 renal, 1.93 µM; in the test with COLO 205 colon, 1.97 µM; with UO-31 renal, 1.91 µM; with EKVX NSCLC, 1.63 µM; in the test with HOP-92 NSCLC, 2.11 µM. For the same molecule, the GI50 was 2.47 µM in the test on HS 578T breast, 1.61 µM in the test on SNB-75 CNS, 2.08 µM with IGROV1 ovarian and 2.23 µM in the test with BT-549 breast. For the same molecule, the TGI was 4.11 µM with HT29 colon; 4.31 µM with CAKI-1 renal; 3.95 µM in the test on COLO 205 colon; 4.73 µM with UO-31 renal; 3.58 µM with EKVX NSCLC; 4.02 µM in the test with HOP-92 NSCLC. For the same molecule, the TGI came out at 6.04 µM in the test on HS 578T breast, 2.96 µM with SNB-75 CNS, 4.46 µM with IGROV1 ovarian and 4.36 µM in the test on BT-549 breast.

Regarding `CCc1nc(N)nc(N)c1-c1ccc(N2CCNCC2)cc1`, the TGI was above 100 µM with HT29 colon; above 100 µM with CAKI-1 renal; 41.1 µM in the test with COLO 205 colon; above 100 µM in the test on UO-31 renal; above 100 µM in the test with EKVX NSCLC; above 100 µM with HOP-92 NSCLC. Also, the TGI in the test with HS 578T breast, in the test on SNB-75 CNS, in the test on IGROV1 ovarian and in the test on BT-549 breast was above 100 µM each time.

Take `CN(Cc1cnc2nc(N)nc(N)c2n1)c1ccc(C(=O)NC(CCC(=O)O)C(=O)O)cc1Br` (configuration not stated): the GI50 was below 0.01 µM in the test with HT29 colon; below 0.01 µM in the test with CAKI-1 renal; below 0.0215 µM in the test with COLO 205 colon; below 0.01 µM with UO-31 renal; below 0.01 µM with EKVX NSCLC; 1.47 µM in the test on HOP-92 NSCLC. Also, the GI50 in the test on HS 578T breast is 1.1 µM; in the test with IGROV1 ovarian, below 0.01 µM; with BT-549 breast it was below 0.01 µM. The TGI with HT29 colon was above 100 µM; with COLO 205 colon, 17.4 µM; in the test on EKVX NSCLC it was 48.3 µM; with HOP-92 NSCLC, 23.1 µM; in the test with HS 578T breast, 6.39 µM; in the test with SNB-75 CNS, 5.06 µM. Besides, the TGI was determined as 1.01 µM in the test with IGROV1 ovarian and 2.5 µM with BT-549 breast.

As to `O=C(CN1C(=O)S/C(=C\C(Cl)=C\c2ccccc2)C1=O)NC1C=CS(=O)(=O)C1` (configuration not stated), the GI50 is 1.92 µM in the test with HT29 colon; 1.65 µM in the test on CAKI-1 renal; 1.54 µM with COLO 205 colon; 1.37 µM with UO-31 renal; 2.19 µM in the test with EKVX NSCLC; 1.67 µM in the test with HOP-92 NSCLC. Moreover, the GI50 was 2.33 µM in the test on HS 578T breast, 0.387 µM in the test on SNB-75 CNS, 1.31 µM in the test with IGROV1 ovarian and 1.75 µM with BT-549 breast. Moreover, the TGI with HT29 colon was found to be 6.72 µM; in the test with CAKI-1 renal, 4.23 µM; in the test on COLO 205 colon it was 3.76 µM; in the test on UO-31 renal it was 2.79 µM; in the test on EKVX NSCLC it was 6.06 µM; in the test with HOP-92 NSCLC it was 5.75 µM. The TGI in the test with HS 578T breast stood at 8.33 µM; in the test with SNB-75 CNS, 12.6 µM; in the test with IGROV1 ovarian, 4.31 µM; in the test with BT-549 breast, 4.78 µM.

Take `COc1cc2cc(Oc3ccc(NC(=O)Nc4ccc(Cl)c(Cl)c4)cc3)c(C)nc2cc1OC`: the GI50 with HT29 colon was 2.34 µM; in the test on CAKI-1 renal, 2.12 µM; in the test on COLO 205 colon it was 2.75 µM; in the test on UO-31 renal, 3.44 µM; with EKVX NSCLC, 2.36 µM; in the test with HOP-92 NSCLC, 2.04 µM. In addition, the GI50 in the test on HS 578T breast is 3.54 µM; in the test with SNB-75 CNS, 2.33 µM; with IGROV1 ovarian, 5.61 µM; in the test on BT-549 breast, 2.4 µM. Also, the TGI is 4.89 µM in the test with HT29 colon; 6.65 µM in the test with CAKI-1 renal; 6.5 µM in the test with COLO 205 colon; 12.6 µM with UO-31 renal; 9.51 µM with EKVX NSCLC; 4.88 µM in the test on HOP-92 NSCLC. The TGI with HS 578T breast was 9.68 µM; with SNB-75 CNS, 8.28 µM; in the test with IGROV1 ovarian it was 46.1 µM; in the test with BT-549 breast, 11.7 µM.

`O=C1Cc2cc(C(=O)NC3C[C@H]4CC[C@@H](C3)N4S(=O)(=O)CC3CCN(CCCC(F)(F)F)CC3)c(Cl)cc2N1` (some centres not stated): the GI50 was above 100 µM in the test with HT29 colon; above 100 µM in the test with CAKI-1 renal; 31.2 µM with COLO 205 colon; above 100 µM in the test on UO-31 renal; above 100 µM with EKVX NSCLC; 67.7 µM in the test on HOP-92 NSCLC. The GI50 with HS 578T breast, in the test on SNB-75 CNS, with IGROV1 ovarian and with BT-549 breast was above 100 µM throughout. The TGI with HT29 colon, in the test on CAKI-1 renal, in the test on COLO 205 colon, in the test with UO-31 renal, in the test with EKVX NSCLC and with HOP-92 NSCLC was above 100 µM in each case. Further, the TGI in the test with HS 578T breast, in the test with SNB-75 CNS, in the test with IGROV1 ovarian and in the test on BT-549 breast was above 100 µM throughout.

Turning to `O=S(=O)(c1cnccc1N1CCN(CCO)CC1)N1CCCC1`, the TGI in the test on HT29 colon, in the test on CAKI-1 renal, in the test on COLO 205 colon, in the test on UO-31 renal, in the test on EKVX NSCLC and in the test with HOP-92 NSCLC was above 100 µM each time. Besides, the TGI in the test on HS 578T breast, in the test with SNB-75 CNS, in the test with IGROV1 ovarian and in the test on BT-549 breast was above 100 µM throughout.
